Consider three substances from patent US7781199B2, “Identification of a JAK2 mutation involved in Vaquez Polyglobulia” (priority 2004, dated 2010).

“Also recorded” adds a separate entry of the source.

The subject of one data set is V617F JAK2. Briefly: Expression of V617F JAK2 in HEL cells after siRNA treatment. The following applies: 24 hours after treatment (FIGS. 8 and 9). Format: cell-based, human. How it is done:
FIGS. 8 and 9: Expression of V617F Jak2 in HEL cells is reduced 24 hours after treatment with siRNA specific to JAK2 V617F Jak2 (siRNA #1, 3 and 4).
Lanes 0 to 6: HEL cells treated (1 to 6) or non-treated (0) with siRNA V617F Jak2.
Lane C+: 293HEK cells transfected with the V617F Jak2RV vector
(§1) The results are shown FIGS. 8, 9 and 10.

The subject of the next data set is wild-type JAK2. Briefly: Expression of wild-type JAK2 in K562 cells after siRNA treatment. Format: cell-based, human. The following applies: 24 hours after treatment (FIG. 10). How it is done:
FIG. 10: Level of WT Jak2 expression in K562 cells remains unchanged 24 hours after treatment with siRNA specific to Jak2 V617.
Lane Je: K562 cells treated with siRNA WT Jak2
Lanes 0 to 6: K562 cells treated with siRNA V617F Jak2
Lane C−: 293HEK (no expression of JAK2).
as §1

Regarding “siRNA 1: siRNA specific to the V617F JAK2 mutation; said to correspond to SEQ ID No 25 (probably No 29, UGGAGUAUGUUUCUGUGGA) (listed as RNA, chemistry not given here)”, in the data set on V617F JAK2, the “expression of V617F Jak2 protein” value was “reduced; also recorded: inhibit”. In the data set with wild-type JAK2, the “level of WT Jak2 expression” value is given as “without inhibiting”.
For the substance “siRNA 3: siRNA specific to the V617F JAK2 mutation; said to correspond to SEQ ID No 26 (probably No 30, GGAGUAUGUUUCUGUGGAG) (listed as RNA, chemistry not given here)”, in the data set with V617F JAK2, the “expression of V617F Jak2 protein” value is recorded as “reduced; also recorded: inhibit”. The “level of WT Jak2 expression” value in the data set with wild-type JAK2 was “without inhibiting”.
Taken in the same sequence, the figures for “siRNA 4: siRNA specific to the V617F JAK2 mutation; said to correspond to SEQ ID No 27 (probably No 31, GAGUAUGUUUCUGUGGAGA) (listed as RNA, chemistry not given here)” were “reduced; also recorded: inhibit” and “without inhibiting”.
